Experimental data taken from patent publication US11000627B2, “Treatment of implants with phosphonic acid compounds” (Nano Bridging Molecules SA, priority 2016, dated 2021).
Read-outs that look alike come from different tables or passages of the source. Marks after values point to notes of the source that are not given here.

Columns and labels:
Type in all cases: physicochemical
[1] = XPS phosphorus over metal ratio on Titanium grade 5 dental implant (prospective data); conditions: room temperature comparative process
[2] = XPS phosphorus over metal ratio on Titanium grade 4 cylinders
Protocol: XPS analyses were performed on an Axis Ultra spectrometer from Kratos (Kratos, Manchester, U.K.) equipped with a concentric hemispherical analyzer and using a monochromatized aluminum anode X-ray source (Al Kα1,2 1486.6 eV, full width at half maximum, fwhm=0.85 eV, 15 kV, 150 W). The samples were investigated under ultrahigh vacuum conditions: 10^−8-10^−7 Pa. Spectra were taken at a 90° takeoff angle with respect to the surface. A sample area of 300×700 μm^2 or 700×700 μm^2 was analyzed with a pass energy of 80.0 eV for survey scans. The spectrometer was calibrated by using Cu 2p3/2 (932.7 eV) and Au 4f7/2 (84.0 eV) signals. Surface sensitivity factors used to determine the atomic concentrations were those of the instrument. Spectra were peak fitted after background subtraction by assuming a Gaussian/Lorentzian (90-70/10-30) peak shape. All peaks between 0 eV to 1200 eV were inspected.
Two Titanium grade 4 cylinders (bulk composition atomic concentration Titanium 100%; length 6.0 mm, diameter 2.4 mm) were provided with a roughened surface, produced by sand blasting and acid etching according to industry standards. The cylinders were immersed in 6 ml of a 2% (v/v) aqueous solution of deconex 15 PF-x (which is a phosphate free, potassium hydroxide based standard cleaning agent). The solution was placed in an ultrasonic bath (output frequency 30 kHz) and sonicated at 65° C. for 15 min. The cylinders were removed from the cleaning agent solution and rinsed with water as follows: 2 times with 10 ml, swirling at room temperature; 4 times with 10 ml, sonicating for 2 min at 65° C.; 1 time with 10 ml, swirling at room temperature. The cylinders were then placed into 6 ml of a 0.7 mM aqueous solution of 1,1,3,3-propane tetraphosphonic acid. The solution was placed in the ultrasonic bath and sonicated at 65° C. for 15 min. The cylinders were rinsed with water as follows: 2 times with 10 ml, swirling at room temperature; 1 time with 10 ml, sonicating for 2 min at 65° C.; 1 time with 10 ml, swirling at room temperature. The cylinders were dried in a desiccator over P2O5 and under vacuum (ca 20 mbar) for at least 3 hours.
Two Titanium grade 4 cylinders (bulk composition atomic concentration Titanium 100%; length 6.0 mm, diameter 2.4 mm) were provided with a roughened surface, produced by sand blasting and acid etching according to industry standards. The cylinders were immersed in 6 ml of a 2% (v/v) aqueous solution of deconex 15 PF-x (which is a phosphate free, potassium hydroxide based standard cleaning agent). The solution was placed in an ultrasonic bath (output frequency 30 kHz) and sonicated at room temperature for 15 min. The cylinders were removed from the cleaning agent solution and rinsed with water as follows: 2 times with 10 ml, swirling at room temperature; 4 times with 10 ml, sonicating for 2 min at room temperature; 1 time with 10 ml, swirling at room temperature. The cylinders were then placed into 6 ml of a 0.7 mM aqueous solution of 1,1,3,3-propane tetraphosphonic acid. The solution was swirled thoroughly and left to stand at room temperature for 15 min. The cylinders were rinsed with water as follows: 2 times with 10 ml, swirling at room temperature; 1 time with 10 ml, sonicating for 2 min at room temperature; 1 time with 10 ml, swirling at room temperature. The cylinders were dried in a desiccator over P2O5 and under vacuum (ca 20 mbar) for at least 3 hours.

[3] = XPS phosphorus over metal ratio on Titanium grade 5 dental implant (prospective data); conditions: 0.5 mM, sonicated 65° C. 10 min, Metal = Ti2p + Al2s + V2p
Protocol: A Titanium grade 5 dental implant (bulk composition atomic concentration Titanium 90%, Aluminum 6%, Vanadium 4%; length 11.0 mm, diameter 3.75 mm) is provided with a roughened surface, produced by sand blasting and acid etching according to industry standards. The dental implant is immersed in 30 ml of a 2% (v/v) aqueous solution of deconex 15 PF-x (which is a phosphate free, potassium hydroxide based standard cleaning agent). The solution is placed in an ultrasonic bath (output frequency 30 kHz) and sonicated at 65° C. for 15 min. The implant is removed from the cleaning agent solution and rinsed with water as follows: 2 times with 30 ml, swirling at room temperature; 4 times with 30 ml, sonicating for 2 min at 65° C.; 1 time with 30 ml, swirling at room temperature. […] The solution is placed in the ultrasonic bath and sonicated at 65° C. for 10 min. The implant is rinsed with water as follows: 2 times with 10 ml, swirling at room temperature; 1 time with 10 ml, sonicating for 2 min at 65° C.; 1 time with 10 ml, swirling at room temperature. The dental implant is dried in a desiccator over P2O5 and under vacuum (ca 20 mbar) for at least 3 hours. The samples are analyzed by X-ray photoelectron spectroscopy (XPS). Same analysis conditions as described in Example 8 are used.

[4] = Concentration 2 mM, sonicated 65° C. 15 min, Metal = Ti2p

| SMILES | Phosphorus/Metal (surface treatment as described in Comp. Example 6) [1] | Phosphorus/Metal [2, 4] | Phosphorus/Metal (surface treatment as described herein above) [3] | Phosphorus/Metal ([2]; Concentration 1 mM, sonicated 65° C. 15 min, Metal = Ti2p) | Phosphorus/Metal [2] |
| --- | --- | --- | --- | --- | --- |
| CC(C)(C)P(=O)(O)O [PA-3, tert-butyl phosphonic acid] | 0.05-0.11 | 0.02^b | 0.16-0.20 |  |  |
| NC(CP(=O)(O)O)C(=O)O (centres unmarked) [PA-8, 2-amino-3-phosphonopropionic acid] | 0.05-0.11 |  | 0.16-0.20 |  |  |
| CC(O)(P(=O)(O)O)P(=O)(O)O [PA-10, etidronic acid, reference compound] | 0.05-0.11 |  | 0.16-0.20 | 0.09^b |  |
| O=P(O)(O)c1ccccc1 [PA-6, phenyl-1-phosphonic acid] | 0.05-0.11 | 0.03^b | 0.16-0.20 |  |  |
| O=P(O)(O)CCCP(=O)(O)O [PA-2, propane-1,3-diphosphonic acid] | 0.05-0.11 |  | 0.16-0.20 |  |  |
| O=C(CP(=O)(O)O)Oc1ccccc1C(=O)O [PA-9, 2-(2-phosphonoacetoxy)benzoic acid] | 0.05-0.11 |  | 0.16-0.20 |  |  |
| O=P(O)(O)CP(=O)(O)O [Methylene-1,1-diphosphonic acid] |  |  |  |  | 0.10^b |
| O=P(O)(O)C1CCCCC1 [PA-5, 1-cyclohexyl phosphonic acid] | 0.05-0.11 |  | 0.16-0.20 |  |  |
| C=CCP(=O)(O)O [PA-4, 1-propene-3-phosphonic acid] | 0.05-0.11 |  | 0.16-0.20 |  |  |
